Reference: patent US12285392B2, “Method for modulating metabolism” (Brightseed, Inc., priority 2018, dated 2025)

Legend:
[1] = target: T1, HNF4α (Homo sapiens, UniProt P41235); assay: Insulin promoter activity assay in T6PNE cells (HNF4α activity); type: cell-based
T1 construct: endogenous in cells; host or cells: T6PNE cells
T1 sequence (P41235 1-474): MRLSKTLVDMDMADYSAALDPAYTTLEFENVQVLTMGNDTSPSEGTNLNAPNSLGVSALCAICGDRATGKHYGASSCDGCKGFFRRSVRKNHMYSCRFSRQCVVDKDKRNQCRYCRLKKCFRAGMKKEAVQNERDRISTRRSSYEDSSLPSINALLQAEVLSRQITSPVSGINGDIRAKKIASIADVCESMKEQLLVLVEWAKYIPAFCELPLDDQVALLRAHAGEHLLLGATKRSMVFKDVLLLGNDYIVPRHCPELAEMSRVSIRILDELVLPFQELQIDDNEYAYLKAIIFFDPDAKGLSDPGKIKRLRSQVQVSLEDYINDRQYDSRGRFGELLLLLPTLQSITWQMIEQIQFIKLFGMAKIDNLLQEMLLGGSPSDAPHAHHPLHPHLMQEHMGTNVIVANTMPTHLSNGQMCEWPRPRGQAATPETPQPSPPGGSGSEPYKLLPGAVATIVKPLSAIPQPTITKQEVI
Method: Insulin Promoter Activity. T6PNE cells (Kiselyuk, et al. (2012) Chem Biol. 19(7):806-818; Kiselyuk, et al. (2010) J. Biomol. Screen 15(6):663-70) are seeded at 2000 cells per well in 384-well tissue culture plates in the presence of 1 μM tamoxifen and 0.03 mM palmitate. After a 24-hour incubation, a compound or extract of the invention is added to the cells. Forty-eight hours after compound or extract addition, cells are fixed in 4% paraformaldehyde and stained with DAPI. Blue (DAPI) and green (human insulin promoter driving GFP) channels are imaged.
Inhibition of HNF4α GFP Expression. Using the insulin promoter assay described herein, activity of HNF4α was assessed in the presence of BI-6015 (0, 2.5, 5 μM), a known antagonist of HNF4α (Kiselyuk, et al. (2012) Chem. Biol. 19(7):806-818), in combination with N-trans-caffeoyltyramine (0, 5, 10, 20 μM).
Given the role of HNF4α in maintaining a heal thy metabolism in humans, test compounds were screened for activity as HNF4α agonists (either direct or indirect effects). Using a known insulin promoter-reporter assay, Kiselyuk and colleagues (2010. J. Biomol. Screen 15(6):663-70), screened a library of compounds for activity to promote insulin activation. […] The OTC promoter is known to be responsive to HNF4α in transient transfection assays (Inoue, et al. (2002) J. Biol. Chem. 277:25257-65).

[2] = Hepatic microsome stability assay, mouse; type: in vitro ADME; details: mouse microsomes
Method: (§1) Hepatic Microsome Assay. Hepatic microsomes stability assays were performed in accordance with known methods (Peddibhotla, et al. (2013) ACS Med. Chem. Lett. 4:846-851). Briefly, 3 μL of 25 μM compound solution in acetonitrile were incubated with 123 μL of mouse, human or rat liver microsomes (Xenotech, Kansas City, Kans.). […] The microsomal concentrations used were 1.0 mg/mL. Compounds were incubated in microsomes for 0, 5, 15, 30 and 60 minutes. The reactions were stopped by the addition of ice cold ACN and the reaction mixtures were centrifuged at 10,000 g for 10 minutes before the supernatant was removed for analysis. A 10 μL portion of the resulting extract was injected on a Thermo HPLC system equipped with PAL CTC plate sampler (96-well plate), Dionex Ultimate 3000 binary pump (flow rate at 0.600 mL/min), Dionex Ultimate 3000 thermostatted column compartment (temperature at 40° C.), Thermo Endura Mass Spectrometer (ESI source), using a Thermo Scientific Accucore C18 (2.6 μM, 2.1×50 mm) column. A gradient was run starting at 95% H2O (0.1% formic acid) and 5% ACN (0.1% formic acid) during the first 0.5 min, then under gradient condition of 5-100% ACN (0.1% formic acid) from minute 0.5 to 3.5, finishing at 95% H2O (0.1% formic acid) and 5% ACN (0.1% formic acid) over 0.5 min, with another 1 min at 95:5 to re-equilibrate.

[3] = Hepatic microsome stability assay, human; type: in vitro ADME
Method: as §1

## O=C(/C=C/c1ccc(O)c(O)c1)NCCc1ccc(O)cc1 [N-trans-caffeoyltyramine]
[1]; FIG. 1, insulin promoter activity dose-response
  Potency in activating HNF4α relative to Alverine: roughly an order-of-magnitude more potent than Alverine
[1]; screening in the HNF4α assay
  HNF4α modulation in screening: able to act as HNF4α modulators
[2]; 1 μM
  % Remaining: 0.4%
[2]; 10 μM
  % Remaining: 0.3%
[3]; human microsomes
  Apparent major biotransformation pathway: oxidation of the left-hand aryl ring
[3]; human microsomes, 1 μM
  % Remaining: 55.3%
[3]; human microsomes, 10 μM
  % Remaining: 85.4%
[3]; human, rat and mouse hepatic microsomes
  Stability in hepatic microsomes: stable
